Series [1] in a line: Preliminary miscibility assays on the free base in selected solvents. It counts as physicochemical. The note with it: for Miscibility: number of volumes needed to dissolve the oil at room temperature. The source says: Preliminary Miscibility Assays on (R)-9-(2,5-difluorophenethyl)-4-ethyl-2-methyl-1-oxa-4,9-diazaspiro[5.5]undecan-3-One Free Base
The conditions of series [2]: acidic counter-ion; cited from earlier work.

The structures appear in SMILES notation.

Regarding `CCN1CC2(CCN(CCc3cc(F)ccc3F)CC2)O[C@H](C)C1=O` [(R)-9-(2,5-difluorophenethyl)-4-ethyl-2-methyl-1-oxa-4,9-diazaspiro[5.5]undecan-3-one], the “miscibility of the oil with the solvents tested” value in series [1] (room temperature, all the solvents tested (Table 2)) is given as “freely miscible”. Moreover, the Miscibility in series [1] (solvent H2O), in series [1] (solvent IPA (isopropanol)), in series [1] (solvent MIK (methyl isobutyl ketone)), in series [1] (solvent THF (tetrahydrofuran)) and in series [1] (solvent Toluene) was 10 V each time.

For `O=C(O)[C@@H](O)c1ccccc1` [(S)-(+)-Mandelic acid], the pKa1 in series [2] is listed as 3.4.

Regarding `Br` [Hydrobromic acid], in series [2], the pKa1 is recorded as −6.

For the compound `O=[N+]([O-])O` [Nitric acid], the pKa1 in series [2] is on record as −1.4.
